Data on four compounds can be found in US6492536B2, “Steroids, their use as medicaments, their preparation process, the intermediates of this process and the compositions containing them” (Aventis Pharma S.A., priority 1996, dated 2002).

One experiment has as its system male mice. Kind of experiment: Ear oedema test induced by croton oil. The experiment is classed as in vivo. The note with it: applied to the ear, 6 hours. As for the experimental part: Ear Oedema Test Induced by Croton Oil
The products have also been tested in the model of the ear oedema of mice using croton oil according to the method described in Tonelli et al. (Endocrinology, 1965, 77, 625-634). An ear oedema is induced in male mice weighing 18 to 22 g, by using croton oil (2% v/v) in a pyridine-water-ether solution 4:1:14.6 (by volume). The animals are sacrificed 6 hours later, the ears are removed and weighed. The difference in weight between the ear treated with croton oil and the contralateral ear (non-treated) allows 100% of the oedema to be determined. The products to be tested are dissolved in the solution of croton oil and applied to the ear.

Experiment [1] relates to Female Wistar rats. Kind of experiment: Thymolytic activity (thymus weight in granuloma test). The experiment is classed as in vivo. The note with it: rat, oral route, once a day for four days. The protocol:
(§1) Granuloma Test—Thymolytic Activity
(§2) The anti-inflammatory activity was studied according to the standard granuloma test. The technique used is a modification of the method of Meier and Coll. (Experentia, 1950, 6, 469). Female Wistar rats, weighing 90 to 100 g, receive an implantation of two cotton pellets of 10 mg each under the skin of the thorax. The products are immediately administered by oral route, a the rate of once a day for four days. The animals are then sacrificed. The pellets surrounded by the granuloma tissue formed, are weighed in the fresh state, then after eighteen hours at 60° C. The weight of the granuloma is obtained by deduction of the initial weight of the cotton.
The thymuses are also removed and weighed in order to determine the thymolytic activity of the products.

The test system of a further experiment is Male Wistar rats. As to the kind of experiment: Retarded hypersensitivity test (M. Tuberculosis), immunosuppressive activity. The class given is in vivo. To be noted: oral route from day 4 to 7, paw oedema 24 hours after antigen; for ED50: Mycobacterium tuberculosis, 4TO7, rat, read-out: Retarded hypersensitivity (M. Tuberculosis, rat) ED 50. The protocol:
3) Immunosuppressive Activity.
The immunosuppressive activity was studied according to the retarded hypersensitivity test described in the article by Hambleton et al. (Agents and Actions, […], 29, 328). Male Wistar rats weighing 150 to 160 g are sensitized on day 0 with a suspension of Mycobacterium Tuberculosis 4 mg/ml in parrafin oil by a sub-cutaneous injection at the base of the tail (0.1 ml/animal).
The products are administered by oral route from day 4 to 7.
On day 7, one hour after the last administration, the animals receive an injection of the soluble fraction of the antigen triggering the hypersensitivity reaction: 0.4 mg/rat in 0.2 ml by intraplantar route in a rear paw, the other receives the same quantity of solvent.
The oedema is measured 24 hours afterwards using an UGO BASIL plethysmometer from APELEX.
The activity of the products is evaluated by the percentage reduction in the increase of the injected paw relative to that of the control animals.

Another experiment has as its system collagenase promoter. Kind of experiment: Regulation of transcription in transfected Hela cells: transrepression (Coll (-517/+63) CAT plasmid). The class given is cell-based. The note with it: 24 hours, CAT ELISA; for inhibition at 1 µM / inhibition at 0.1 µM / inhibition at 0.01 µM / inhibition at 0.001 µM: Homo sapiens. The protocol:
(§3) The molecules according to the invention have been tested in models of HELA cells transfected with the GRE-tk-CAT plasmid (transactivation), or with the pColl-CAT plasmid (transrepression). (Cf. TEST 1)
(§4) I) Study of the regulation of transcription in transfected Hela cells.
(§5) Hela cells (ATCC ref: CCL-2) are distributed in a 6-well plate, in a nutritive medium with a density of 4×10^5 cells/ml, 24 hours before the transfection, and are incubated at 37° C. The transitory transfections are produced according to the precipitate method with calcium phosphate. In the case of the study of transactivation, the cells are transfected with 1 μg of GRE-tk-CAT plasmid, 1 μg of polyII β-GAL plasmid and KS plasmid (Stratagene), s.q.f. 5 μg. In the case of the study of transrepression, the cells are transfected with 3 μg of Coll (−517/+63) CAT plasmid, 250 ng of pSV-cjun plasmid, 1 μg of polyII β-GAL plasmid and KS plasmid (Stratagene), s.q.f. 5 μg. The precipitate is left in contact with the cells for 16 hours. These are then rinsed and covered with the nutritive medium containing different concentrations of Dexamethasone or the products to be studied (10^−9M, 10^−8M, 10^−7M, 10^−6M). 24 hours after the addition of the products, the cells are lysed in 250 μl of MOPS-NaCl-Triton X-100 buffer. The CAT is dosed in the cellular extracts using the ELISA Kit (Boehringer Mannheim).

The next experiment relates to GRE-tk promoter. Kind of experiment: Regulation of transcription in transfected Hela cells: transactivation (GRE-tk-CAT plasmid). The experiment is classed as cell-based. The note with it: 24 hours, CAT ELISA. As for the experimental part:
as §3, §4, §5

Experiment [2] deals with Female Wistar rats. As to the kind of experiment: Granuloma test (cotton pellets), anti-inflammatory activity. The class given is in vivo. To be noted: rat, oral route, once a day for four days. The protocol: as §1, §2

A value given as a limit tells only on which side of the number the result lay.

On to `C[C@@H]1C[C@H]2[C@@H]3CCC4=CC(=O)C=C[C@]4(C)[C@@]3(F)[C@@H](O)C[C@]2(C)[C@@]1(O)C(=O)CO` [Dexamethasone, reference compound], for which the “Oedema using croton oil (mouse) ED 50” value in the experiment with male mice is 1 μg/ear. Also, the “Thymolysis ED 50” value in the experiment on Female Wistar rats [1] is under 0.05 mg/kg/po. Moreover, the ED50 in the experiment on Male Wistar rats came to 0.05 mg/kg. For the same compound, testing at 1 µM with collagenase promoter (10^-6 M) gave an inhibition of 93.1%. Further, the inhibition (as a rule, the share of the control response that was lost under treatment) at 0.1 µM with collagenase promoter (10^-7 M) is 96.6%. This compound also had an inhibition at 0.01 µM in the experiment with collagenase promoter (10^-8 M) of 87.6%. In the experiment with collagenase promoter (10^-9 M), this compound gave an inhibition at 0.001 µM of 42.2%. The “Activation of GRE-tk (%)” value is reported as 98.82 +/− 1.18% with GRE-tk promoter (10^-6 M), 89.48 +/− 2.26% with GRE-tk promoter (10^-7 M), 53.38 +/− 2.65% in the experiment with GRE-tk promoter (10^-8 M) and 7.34 +/− 2.57% in the experiment on GRE-tk promoter (10^-9 M). The “Granuloma ED 50” value with Female Wistar rats [2] stood at 0.1 mg/kg/po.

Turning to `CSCC(=O)[C@H]1[C@H](C)C[C@H]2[C@@H]3CCC4=CC(=O)C=C[C@]4(C)[C@@]3(F)[C@@H](O)C[C@@]21C` [Example 1, 9α-fluoro-11β-hydroxy-16α-methyl-21-thiomethyl-pregna-1,4-diene-3,20-dione], the “Oedema using croton oil (mouse) ED 50” value in the experiment with male mice is 10 μg/ear. Further, the “Thymolysis ED 50” value with Female Wistar rats [1] is given as 2.5 mg/kg/po. The “Retarded hypersensitivity (M. Tuberculosis, rat) ED 50” value in the experiment on Male Wistar rats is 2.3 mg/kg. For the same compound, the “Inhibition of the Coll promoter (%)” value with collagenase promoter (10^-6 M) is given as 81.79 +/− 2.98%; in the experiment on collagenase promoter (10^-7 M), 57.61 +/− 2.46%; with collagenase promoter (10^-8 M), 37.12 +/− 6.7%; with collagenase promoter (10^-9 M), 3.57 +/− 3.09%. Further, the “Activation of GRE-tk (%)” value in the experiment with GRE-tk promoter (10^-6 M) is listed as 37.56 +/− 1.9%; with GRE-tk promoter (10^-7 M) it was 35.21 +/− 2.24%; with GRE-tk promoter (10^-8 M), 27.74 +/− 1.05%; in the experiment on GRE-tk promoter (10^-9 M) it was 3.78 +/− 0.87%. For the same compound, the “Granuloma ED 50” value in the experiment with Female Wistar rats [2] amounted to 5 mg/kg/po.

`C[C@@H]1C[C@H]2[C@@H]3CCC4=CC(=O)C=C[C@]4(C)[C@@]3(F)[C@@H](O)C[C@]2(C)[C@H]1C(=O)CC#N` [Example 2, 9α-fluoro-11β-hydroxy-16α-methyl-pregna-1,4-diene-3,20-dione-21-carbonitrile]: the “Oedema using croton oil (mouse) ED 50” value with male mice stood at 2 μg/ear. The “Thymolysis ED 50” value in the experiment on Female Wistar rats [1] was found to be 2.5 mg/kg/po. Moreover, the ED50 in the experiment with Male Wistar rats was 1.5 mg/kg. Moreover, in the experiment on collagenase promoter (10^-6 M), the inhibition at 1 µM is 75.6%. In addition, at 0.1 µM the inhibition in the experiment on collagenase promoter (10^-7 M) was 81.3%. In the experiment with collagenase promoter (10^-8 M), this compound showed an inhibition at 0.01 µM of 36.2%. This compound registered an inhibition at 0.001 µM in the experiment with collagenase promoter (10^-9 M) of 20.6%. Also, the “Activation of GRE-tk (%)” value in the experiment on GRE-tk promoter (10^-6 M) is reported as 16.92 +/− 3.55%; with GRE-tk promoter (10^-7 M) it was 10.45 +/− 4.33%; with GRE-tk promoter (10^-8 M), 1.34 +/− 1.33%; in the experiment with GRE-tk promoter (10^-9 M), 0%. Moreover, in the experiment on Female Wistar rats [2], the “Granuloma ED 50” value is on record as over 7 mg/kg/po.

Consider `C[C@]12C=CC(=O)C=C1CC[C@@H]1[C@@H]2[C@@H](O)C[C@@]2(C)[C@H]1CC[C@]2(O)C(=O)CO` [Prednisolone, reference compound], for which the “Oedema using croton oil (mouse) ED 50” value with male mice amounted to 4 μg/ear. The “Thymolysis ED 50” value in the experiment with Female Wistar rats [1] was 1.6 mg/kg/po. Moreover, the ED50 in the experiment on Male Wistar rats is 5 to 20 mg/kg. In addition, the “Granuloma ED 50” value in the experiment with Female Wistar rats [2] was 2.5 mg/kg/po.
